The values below come from patent publication US4010268A, “Derivatives of hexahydrodibenzofuran-3-one, their preparation and use in pharmaceutical compositions” (Roussel-UCLAF, priority 1974, dated 1977).

Counter-ions that a name gives are not always drawn.

Data set [1] relates to cough experimentally induced by electric stimulation of the vagus nerve in the guinea pig. Kind of data set: Antitussive activity: cough induced by electric stimulation of the vagus nerve. In kind it is in vivo. The settings on record: for inhibition in vivo at 100 mg/kg / ED50: Cavia porcellus; for inhibition in vivo at 100 mg/kg: 100 mg/kg oral, stimulus 20 and 40 minutes after administration, 6 negative responses = 100%, groups of 6 guinea pigs, read-out: Percentage cough inhibition; for antitussive activity (in words): conclusion from Table 3 results; for ED50: guinea pig, oral, vagus nerve stimulation, read-out: ED50 (dose which reduces the number of coughs by 50%). As for the experimental part: The test consists of stimulating the vagus nerve of the guinea pig and repeating the stimulus 20 and 40 minutes after oral administration of 100 mg/kg of the product under test. 6 Negative responses (3 after 20 minutes and 3 after 40 minutes) represent a cough inhibition of 100%. The test was carried out in groups of 6 animals against groups of control animals (undosed).
In addition, for certain compounds the ED50 was also determined, i.e. that dose which reduces the number of coughs by 50%.

A short description of another data set: Acute toxicity, oral. The following applies: guinea pig, in vivo; guinea pigs, increasing oral dose. On the procedure:
The acute toxicity of some of compounds of the invention was determined on guinea pigs which had received an increasing oral dose of the compound.

For orientation: LD50 means the dose at which mortality reaches 50%. As usually defined, the ED50 is the midpoint of the dose-response relation.

Regarding `Cc1ccc2c(c1)[C@@]1(C)CCC(=O)[C@@H](NC(=O)CCN3CCOCC3)[C@H]1O2` (relative stereo) [Example 9], in data set [1], the inhibition in vivo at 100 mg/kg turned out to be 39%. `CCOC(=O)N1CCN(CCC(=O)N[C@@H]2C(=O)CC[C@]3(C)c4cc(C)ccc4O[C@H]23)CC1` (relative stereo) [Example 14]: the inhibition in vivo at 100 mg/kg in data set [1] worked out at 33%. For the same molecule, the LD50 in the data set “Acute toxicity, oral” is above 1000 mg/kg. As to `Cc1ccc2c(c1)[C@@]1(C)CCC(=O)[C@@H](NC(=O)CCN(C)CCN(C)C)[C@H]1O2` (relative stereo) [Example 18], the inhibition in vivo at 100 mg/kg in data set [1] turned out to be 50%. The LD50 in “Acute toxicity, oral” was above 1000 mg/kg. Turning to `Cc1ccc2c(c1)[C@@]1(C)CCC(=O)[C@@H](NC(=O)CCCCCN(C)C)[C@H]1O2` (relative stereo) [Example 25], the inhibition in vivo at 100 mg/kg in data set [1] stood at 25%. In the case of `CC(=O)N1CCN(CCC(=O)N[C@@H]2C(=O)CC[C@]3(C)c4cc(C)ccc4O[C@H]23)CC1` (relative stereo) [Example 20], in data set [1], the inhibition in vivo at 100 mg/kg came to 33%. Further, in the data set “Acute toxicity, oral”, the LD50 was above 1000 mg/kg.

Consider `Cc1ccc2c(c1)[C@@]1(C)CCC(=O)[C@@H](NC(=O)CCN(C)C)[C@H]1O2` (relative stereo) [Example 10, 8,9bβ-dimethyl-1,2,3,4,4aβ,9b-hexahydro-4α-[3-N,N-dimethylamino-propionamido]-dibenzofuran-3-one], for which, in data set [1], the inhibition in vivo at 100 mg/kg turned out to be 89% and the “antitussive activity (in words)” value is “important antitussive activity”. For the same molecule, in “Acute toxicity, oral”, the LD50 fell in the range of 500 to 1000 mg/kg.

With `Cc1ccc2c(c1)[C@@]1(C)CCC(=O)[C@@H](NC(=O)CCN3CCNCC3)[C@H]1O2` (relative stereo) [Example 13, 8,9bβ-1,2,3,4,4aβ,9b-hexahydro-4α-[3-piperazinopropionamido]-dibenzofuran-3-one], in data set [1], the inhibition in vivo at 100 mg/kg was found to be 75%. The molecule further gave an LD50 in “Acute toxicity, oral” above 1000 mg/kg. As for `Cc1ccc2c(c1)[C@@]1(C)CCC(=O)[C@@H](NC(=O)CCCN3CCN(C)CC3)[C@H]1O2` (relative stereo) [Example 22, 8,9bβ-dimethyl-1,2,3,4,4aβ,9b-hexahydro-4α-[4-(4-methylpiperazin-1-yl)-butyramido]-dibenzofuran-3-one], the inhibition in vivo at 100 mg/kg in data set [1] came out at 72%. As to `Cc1ccc2c(c1)[C@@]1(C)CCC(=O)[C@@H](NC(=O)CN3CCN(C)CC3)[C@H]1O2` (relative stereo) [Example 4], the inhibition in vivo at 100 mg/kg in data set [1] amounted to 43%. This molecule also showed an LD50 in “Acute toxicity, oral” above 800 mg/kg. Take `Cc1ccc2c(c1)[C@@]1(C)CCC(=O)[C@@H](NC(=O)CCCCN(C)C)[C@H]1O2` (relative stereo) [Example 24, 8,9bβ-dimethyl-1,2,3,4,4aβ,9b-hexahydro-4α-[5-N,N-dimethylamino-valeramido]-dibenzofuran-3-one]: in data set [1], the inhibition in vivo at 100 mg/kg turned out to be 83%, the ED50 was determined as 71 mg/kg and the “antitussive activity (in words)” value is on record as “important antitussive activity”. Regarding `Cc1ccc2c(c1)[C@@]1(C)CCC(=O)[C@@H](NC(=O)CCN3CCN(c4ccccc4)CC3)[C@H]1O2` (relative stereo) [Example 15], in data set [1], the inhibition in vivo at 100 mg/kg worked out at 54%. Consider `Cc1ccc2c(c1)[C@@]1(C)CCC(=O)[C@@H](NC(=O)CCN3CCN(C)CC3)[C@H]1O2` (relative stereo) [Example 1, 8,9bβ-dimethyl-1,2,3,4,4aβ,9b-hexahydro-4α-[3-(4-methylpiperazin-1-yl)-propionamido]-dibenzofuran-3-one dihydrochloride], for which, in data set [1], the inhibition in vivo at 100 mg/kg was found to be 100%, the ED50 turned out to be 32.5 mg/kg and the “antitussive activity (in words)” value is reported as “important antitussive activity”. The LD50 in the data set “Acute toxicity, oral” worked out at 1480 mg/kg.

On to `Cc1ccc2c(c1)[C@@]1(C)CCC(=O)[C@@H](NC(=O)CN3CCCC3)[C@H]1O2` (relative stereo) [Example 7], for which the inhibition in vivo at 100 mg/kg in data set [1] was found to be 17%. In “Acute toxicity, oral”, this molecule yielded an LD50 of around 800 mg/kg. In the same order, the values of `Cc1ccc2c(c1)[C@@]1(C)CCC(=O)[C@@H](NC(=O)CCN3CCCC3)[C@H]1O2` (relative stereo) [Example 11] are 44% and around 600 mg/kg.

Consider `CCN1CCN(CCC(=O)N[C@@H]2C(=O)CC[C@]3(C)c4cc(C)ccc4O[C@H]23)CC1` (relative stereo) [Example 21], for which the LD50 in “Acute toxicity, oral” is above 1000 mg/kg. With `CCN(CC)CCC(=O)N[C@@H]1C(=O)CC[C@]2(C)c3cc(C)ccc3O[C@H]12` (relative stereo) [Example 19], in data set [1], the inhibition in vivo at 100 mg/kg stood at 33%.

Take `Cc1ccc2c(c1)[C@@]1(C)CCC(=O)[C@@H](NC(=O)CCN3CCN(CCO)CC3)[C@H]1O2` (relative stereo) [Example 16]: the inhibition in vivo at 100 mg/kg in data set [1] worked out at 17%. Regarding `Cc1ccc2c(c1)[C@@]1(C)CCC(=O)[C@@H](NC(=O)CCCN(C)C)[C@H]1O2` (relative stereo) [Example 23], the inhibition in vivo at 100 mg/kg in data set [1] turned out to be 67%. With `Cc1ccc2c(c1)[C@@]1(C)CCC(=O)[C@@H](NC(=O)CCN3CCCCC3)[C@H]1O2` (relative stereo) [Example 12], the inhibition in vivo at 100 mg/kg in data set [1] was 46%. The LD50 in “Acute toxicity, oral” was around 400 mg/kg.

Take `Cc1ccc2c(c1)[C@@]1(C)CCC(=O)[C@@H](NC(=O)CCN3CCN(Cc4ccccc4)CC3)[C@H]1O2` (relative stereo) [Example 17]: the inhibition in vivo at 100 mg/kg in data set [1] was 33%. Further, the LD50 in “Acute toxicity, oral” is above 1000 mg/kg.

The molecule `CCN(CC(=O)N[C@@H]1C(=O)CC[C@]2(C)c3cc(C)ccc3O[C@H]12)Cc1ccccc1` (relative stereo) [Example 8] returned an LD50 in the data set “Acute toxicity, oral” above 800 mg/kg.
